According to ChEMBL document CHEMBL3137667, “[Drug-induced liver injury; fourteenth updated edition of the bibliographic database of liver injuries and related drugs]” (Gastroenterol Clin Biol, 2004):

Columns and labels:
[1] = Comments (NB not yet translated). [column 'COMMENTAIRES' in source]; details: human
[2] = Times to onset, minimal and maximal, observed in the indexed observations. [column 'DELAI' in source]; details: human
[3] = human
[4] = human; remark: listed apart in the source
[5] = human; remark: listed apart in the source
[6] = Proposed mechanism(s) of liver damage. [column 'MEC' in source]; details: human
[7] = human; remark: listed apart in the source
[8] = human; remark: listed apart in the source
[9] = human; remark: listed apart in the source
[10] = Highest frequency of moderate liver toxicity observed during clinical trials, expressed as a percentage. [column '% BIOL' in source]; details: human
[11] = human; remark: listed apart in the source
[12] = Highest frequency of acute liver toxicity observed during clinical trials, expressed as a percentage. [column '% AIGUE' in source]; details: human
[13] = human; remark: listed apart in the source
[14] = human, serum
[15] = human, serum, 4383 h
[16] = Presence of at least one case with successful reintroduction. [column 'REINT' in source]; details: human
[17] = human; remark: listed apart in the source
[18] = human; remark: listed apart in the source
[19] = human, serum; remark: listed apart in the source
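Wherever Hepatotoxicity (association with vascular disease) is given: count of indexed literature references reporting vascular liver injury in humans, e.g. peliosis hepatitis, hepatic veno-occlusive disease or Budd-Chiari syndrome.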
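Wherever Hepatotoxicity (benign tumour) is given: value is a count of indexed literature references citing a benign tumour confirmed by histopathology.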
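Wherever Hepatotoxicity (choleostasis) is given: human cholestatic liver injury, shown by histopathology or by peak ALT or AST elevation over alkaline phosphatase ratio below 2, value counts indexed literature reports.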
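Wherever Hepatotoxicity (chronic liver disease) is given: chronic liver injury confirmed by histopathology or persistently raised serum aminotransferase activity beyond 6 months, value given as the count of indexed literature references.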
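Wherever Hepatotoxicity (cirrhosis) is given: value is a count of indexed literature references reporting cirrhosis confirmed by histopathology.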
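Wherever Hepatotoxicity (cytolytic) is given: human cytolytic liver injury, shown by histopathology or by a ratio above 5 of peak ALT or AST elevation to alkaline phosphatase elevation, value counts indexed references.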
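Wherever Hepatotoxicity (granulomatous hepatitis) is given: value is a count of indexed literature references reporting granulomatous liver disease confirmed by histopathology.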
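Wherever Hepatotoxicity (malignant tumour) is given: malignant tumour confirmed by histopathology, value gives the count of indexed literature references reporting it.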
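Wherever Hepatotoxicity (severe hepatitis) is given: human clinical data: severe hepatitis, meaning potentially life-threatening liver failure or clinically observed cases, the value counts how many indexed literature references report it.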
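Wherever Hepatotoxicity (steatosis) is given: steatosis confirmed by histopathology, value is the count of indexed references.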

## Cn1cnc([N+](=O)[O-])c1Sc1ncnc2nc[nH]c12 [AZATHIOPRINE]
[1]
  Hepatotoxicity (comment): HNR REACTIVATION_HVB CHOLANGITE MVO PELIOSE
[2]
  Hepatotoxicity (time to onset): 2 hours - 8 years
[3]
  Hepatotoxicity (steatosis): 3
[4]
  Hepatotoxicity (benign tumour): 18
[5]
  Hepatotoxicity (cirrhosis): 4
[6]; Liver
  Hepatotoxicity (mechanism): Allergic, Dose-dependant
[7]
  Hepatotoxicity (malignant tumour): 6
[8]
  Hepatotoxicity (animal toxicity known): yes
[9]; Liver
  Hepatotoxicity (severe hepatitis): 5
[10]; Liver
  Hepatotoxicity (moderate): 28%
[11]
  Hepatotoxicity (association with vascular disease): 27
[12]; Liver
  Hepatotoxicity (acute): 11.1%
[13]; Liver
  Hepatotoxicity (cytolytic): 19
[14]
  Hepatotoxicity (acute): 61
[15]
  Hepatotoxicity (chronic liver disease): 3
[16]
  Hepatotoxicity (successful reintroduction): yes
[17]; Liver
  Hepatotoxicity (choleostasis): 34
[18]; Liver
  Hepatotoxicity (granulomatous hepatitis): 2
[19]
  Hepatotoxicity (moderate): 40

## C[C@H](CS)C(=O)N1CCC[C@H]1C(=O)O [CAPTOPRIL]
[1]
  Hepatotoxicity (comment): PSEUDOCHOLANGITE RC/ENALAPRIL/LISINOPRIL
[2]
  Hepatotoxicity (time to onset): 9 days - 26 months
[3]
  Hepatotoxicity (steatosis): 1
[4]
  Hepatotoxicity (benign tumour): 0
[5]
  Hepatotoxicity (cirrhosis): 1
[6]
  Hepatotoxicity (mechanism): Allergic
[7]
  Hepatotoxicity (malignant tumour): 0
[8]
  Hepatotoxicity (animal toxicity known): yes
[9]; Liver
  Hepatotoxicity (severe hepatitis): 1
[10]; Liver
  Hepatotoxicity (moderate): 4%
[11]
  Hepatotoxicity (association with vascular disease): 0
[12]; Liver
  Hepatotoxicity (acute): 0.1%
[13]
  Hepatotoxicity (cytolytic): 7
[14]
  Hepatotoxicity (acute): 26
[15]
  Hepatotoxicity (chronic liver disease): 1
[16]
  Hepatotoxicity (successful reintroduction): yes
[17]
  Hepatotoxicity (choleostasis): 16
[18]
  Hepatotoxicity (granulomatous hepatitis): 0
[19]
  Hepatotoxicity (moderate): 5

## CN(C)CCCN1c2ccccc2Sc2ccc(Cl)cc21 [CHLORPROMAZINE]
[1]
  Hepatotoxicity (comment): RC/PROMAZINE/THIORIDAZINE AC_ANTI-N #CBP DUCTOPENIE
[2]
  Hepatotoxicity (time to onset): 1 day - 28 years
[3]
  Hepatotoxicity (steatosis): 1
[4]
  Hepatotoxicity (benign tumour): 0
[5]
  Hepatotoxicity (cirrhosis): 8
[6]
  Hepatotoxicity (mechanism): Allergic, Toxic Metabolite
[7]
  Hepatotoxicity (malignant tumour): 0
[8]
  Hepatotoxicity (animal toxicity known): yes
[9]; Liver
  Hepatotoxicity (severe hepatitis): 4
[10]; Liver
  Hepatotoxicity (moderate): 42%
[11]
  Hepatotoxicity (association with vascular disease): 0
[12]; Liver
  Hepatotoxicity (acute): 5.3%
[13]
  Hepatotoxicity (cytolytic): 13
[14]
  Hepatotoxicity (acute): 58
[15]
  Hepatotoxicity (chronic liver disease): 6
[16]
  Hepatotoxicity (successful reintroduction): yes
[17]
  Hepatotoxicity (choleostasis): 50
[18]
  Hepatotoxicity (granulomatous hepatitis): 2
[19]
  Hepatotoxicity (moderate): 9

## CN/C(=N/CCSCc1nc[nH]c1C)NC#N [CIMETIDINE]
[1]
  Hepatotoxicity (comment): RC/FAMOTIDINE I/MEBENDAZOLE
[2]
  Hepatotoxicity (time to onset): 2 days - 2 years
[3]
  Hepatotoxicity (steatosis): 0
[4]
  Hepatotoxicity (benign tumour): 0
[5]
  Hepatotoxicity (cirrhosis): 0
[6]; Liver
  Hepatotoxicity (mechanism): Allergic, Dose-dependant, Toxic Metabolite
[7]
  Hepatotoxicity (malignant tumour): 0
[8]
  Hepatotoxicity (animal toxicity known): yes
[9]; Liver
  Hepatotoxicity (severe hepatitis): 3
[10]; Liver
  Hepatotoxicity (moderate): 38%
[11]
  Hepatotoxicity (association with vascular disease): 0
[12]; Liver
  Hepatotoxicity (acute): 0%
[13]; Liver
  Hepatotoxicity (cytolytic): 20
[14]
  Hepatotoxicity (acute): 28
[15]
  Hepatotoxicity (chronic liver disease): 1
[16]
  Hepatotoxicity (successful reintroduction): yes
[17]; Liver
  Hepatotoxicity (choleostasis): 10
[18]; Liver
  Hepatotoxicity (granulomatous hepatitis): 0
[19]
  Hepatotoxicity (moderate): 29

## CC[C@H]1OC(=O)[C@H](C)[C@@H](O[C@H]2C[C@@](C)(OC)[C@@H](O)[C@H](C)O2)[C@H](C)[C@@H](O[C@@H]2O[C@H](C)C[C@H](N(C)C)[C@H]2O)[C@](C)(OC)C[C@@H](C)C(=O)[C@H](C)[C@@H](O)[C@]1(C)O [CLARITHROMYCIN]
[1]
  Hepatotoxicity (comment): AC_ANTI-N
[2]
  Hepatotoxicity (time to onset): 1 day - 10 weeks
[3]
  Hepatotoxicity (steatosis): 0
[4]
  Hepatotoxicity (benign tumour): 0
[5]
  Hepatotoxicity (cirrhosis): 0
[6]
  Hepatotoxicity (mechanism): Allergic, Dose-dependant
[7]
  Hepatotoxicity (malignant tumour): 0
[8]
  Hepatotoxicity (animal toxicity known): yes
[9]
  Hepatotoxicity (severe hepatitis): 4
[10]
  Hepatotoxicity (moderate): 50.6%
[11]
  Hepatotoxicity (association with vascular disease): 0
[12]
  Hepatotoxicity (acute): 5.6%
[13]
  Hepatotoxicity (cytolytic): 9
[14]
  Hepatotoxicity (acute): 13
[15]
  Hepatotoxicity (chronic liver disease): 0
[16]
  Hepatotoxicity (successful reintroduction): yes
[17]
  Hepatotoxicity (choleostasis): 6
[18]
  Hepatotoxicity (granulomatous hepatitis): 0
[19]
  Hepatotoxicity (moderate): 47

## O=P1(N(CCCl)CCCl)NCCCO1 (configuration not stated) [CYCLOPHOSPHAMIDE ANHYDROUS]
[1]
  Hepatotoxicity (comment): CHC HNR MVO REACTIVATION_HVB
[2]
  Hepatotoxicity (time to onset): 2 days - 21 years
[3]
  Hepatotoxicity (steatosis): 0
[4]
  Hepatotoxicity (benign tumour): 0
[5]
  Hepatotoxicity (cirrhosis): 0
[6]; Liver
  Hepatotoxicity (mechanism): Dose-dependant
[7]
  Hepatotoxicity (malignant tumour): 4
[8]
  Hepatotoxicity (animal toxicity known): yes
[9]; Liver
  Hepatotoxicity (severe hepatitis): 11
[10]; Liver
  Hepatotoxicity (moderate): 85%
[11]
  Hepatotoxicity (association with vascular disease): 44
[12]; Liver
  Hepatotoxicity (acute): 2.6%
[13]; Liver
  Hepatotoxicity (cytolytic): 15
[14]
  Hepatotoxicity (acute): 18
[15]
  Hepatotoxicity (chronic liver disease): 0
[16]
  Hepatotoxicity (successful reintroduction): yes
[17]; Liver
  Hepatotoxicity (choleostasis): 2
[18]; Liver
  Hepatotoxicity (granulomatous hepatitis): 0
[19]
  Hepatotoxicity (moderate): 16

## Cc1onc(-c2c(F)cccc2Cl)c1C(=O)N[C@@H]1C(=O)N2[C@@H]1SC(C)(C)[C@@H]2C(=O)O [FLOXACILLIN]
[1]
  Hepatotoxicity (comment): CHOLESTASE_PROLONGEE CHOLANGITE #CBP
[2]
  Hepatotoxicity (time to onset): 12 hours - 2 months
[3]
  Hepatotoxicity (steatosis): 2
[4]
  Hepatotoxicity (benign tumour): 0
[5]
  Hepatotoxicity (cirrhosis): 2
[6]
  Hepatotoxicity (mechanism): Allergic
[7]
  Hepatotoxicity (malignant tumour): 0
[8]
  Hepatotoxicity (animal toxicity known): yes
[9]
  Hepatotoxicity (severe hepatitis): 2
[10]
  Hepatotoxicity (moderate): 3.4%
[11]
  Hepatotoxicity (association with vascular disease): 0
[12]
  Hepatotoxicity (acute): 0%
[13]
  Hepatotoxicity (cytolytic): 2
[14]
  Hepatotoxicity (acute): 26
[15]
  Hepatotoxicity (chronic liver disease): 1
[16]
  Hepatotoxicity (successful reintroduction): yes
[17]
  Hepatotoxicity (choleostasis): 20
[18]
  Hepatotoxicity (granulomatous hepatitis): 1
[19]
  Hepatotoxicity (moderate): 4

## O=c1[nH]c(=O)n([C@H]2C[C@H](O)[C@@H](CO)O2)cc1F [FLOXURIDINE]
[1]
  Hepatotoxicity (comment): CHOLECYSTITE_ACALCULEUSE CHOLANGITE/IAH #CBP
[2]
  Hepatotoxicity (time to onset): 3 cures - 12 cures
[3]
  Hepatotoxicity (steatosis): 2
[4]
  Hepatotoxicity (benign tumour): 0
[5]
  Hepatotoxicity (cirrhosis): 4
[6]
  Hepatotoxicity (mechanism): Dose-dependant
[7]
  Hepatotoxicity (malignant tumour): 0
[8]
  Hepatotoxicity (animal toxicity known): yes
[9]
  Hepatotoxicity (severe hepatitis): 3
[10]
  Hepatotoxicity (moderate): 100%
[11]
  Hepatotoxicity (association with vascular disease): 3
[12]
  Hepatotoxicity (acute): 60%
[13]
  Hepatotoxicity (cytolytic): 2
[14]
  Hepatotoxicity (acute): 9
[15]
  Hepatotoxicity (chronic liver disease): 0
[16]
  Hepatotoxicity (successful reintroduction): yes
[17]
  Hepatotoxicity (choleostasis): 7
[18]
  Hepatotoxicity (granulomatous hepatitis): 0
[19]
  Hepatotoxicity (moderate): 25
